# Measured values: patent US20260297542A1, “HERBICIDE RESISTANT PLANTS” (SYNGENTA CROP PROTECTION AG, priority 2023, published 2026)
# Changes are numbered by the printed parent chain.
# What was measured:
# [1] = target: T1, AtPPO1 Y361D V365L (SEQ ID NO.135) (Arabidopsis thaliana, UniProt P55826, V365L/Y361D); assay: fluorescent Protoporphyrinogen Oxidase assay, crude extract; type: biochemical; details: for improvement over SEQ ID NO:124: AtPPO1 Y361D V365L (SEQ ID NO:135) vs SEQ ID NO:124; for inhibition at 0.1 ppm / inhibition at 1 ppm / inhibition at 10 ppm / inhibition at 100 ppm: read-out: percentage inhibition
# T1 construct: made in house; host or cells: E. coli BL21 (DE3) hemG, crude extract
# T1 sequence (P55826 35-537 Y361D/V365L): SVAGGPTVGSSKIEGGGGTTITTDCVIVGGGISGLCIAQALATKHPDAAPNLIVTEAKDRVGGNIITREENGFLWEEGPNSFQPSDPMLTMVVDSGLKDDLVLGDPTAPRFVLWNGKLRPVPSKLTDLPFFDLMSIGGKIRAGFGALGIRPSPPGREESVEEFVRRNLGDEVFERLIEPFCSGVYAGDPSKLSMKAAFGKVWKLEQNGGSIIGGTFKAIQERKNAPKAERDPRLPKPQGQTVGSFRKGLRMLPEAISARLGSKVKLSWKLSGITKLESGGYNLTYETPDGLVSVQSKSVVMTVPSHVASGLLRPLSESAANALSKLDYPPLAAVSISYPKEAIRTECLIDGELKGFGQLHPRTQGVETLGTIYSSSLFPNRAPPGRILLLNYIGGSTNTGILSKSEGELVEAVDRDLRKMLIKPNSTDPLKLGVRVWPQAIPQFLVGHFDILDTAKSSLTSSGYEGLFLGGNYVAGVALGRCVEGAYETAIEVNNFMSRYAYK
# Protocol: (§1) A pET24 plasmid containing a DNA sequence encoding each identified variant mutant of AtPPO1 derived from Arabidopsis thaliana, codon-optimised for expression in E. coli, and under control of a T7 promoter, was synthesised by Twist Bioscience. This plasmid was expressed in E. coli BL21 (DE3) hemG with 50 μg/mL kanamycin and 25 μg/mL chloramphenicol selection. Overnight cultures grown at 37° C. were used to inoculate 150 ml AIM (AIM-Terrific Broth Base including Trace elements, Formedium) in 500 ml shake flasks at a ratio of 1:100. Cultures were grown at 37° C., 200 rpm for 3 hours and then overnight at 26° C. Cells were harvested by 4° C. centrifugation for 20 minutes at 600 rpm. Cells were stored at −80° C. until extraction. 0.5-1 g of cell pellet from was thawed and resuspended in ratio of 1:1 in lysis buffer (20 mM Tris pH8, 500 mM sodium chloride, 10% glycerol, 1× complete Protease EDTA-free Inhibitor Tablet (Roche)). The resuspension was sonicated at 50% using 10-20 cycles of 10 seconds, 20 seconds off. After sonication Triton X-100 was added to the lysates at a final concentration of 0.5%. The lysates were centrifuged at 13.00 rpm for 10 min at 4° C. The crude extracts (i.e, supernatants) were stored at −80° C. Protein concentration was measured and calculated using the absorbance at 280 nm. Extracts were diluted 1 in 4 and 10 uL was analysed by SDS PAGE.
# (§2) Variant crude extracts were assayed in a fluorescent Protoporphyrinogen Oxidase assay in black 384 well plates with a clear bottom. The total volume of the reaction mixture was 100 ul and contained 100 mM K2HPO4 pH7.2, 1 mM Na2EDTA, 5 mM DTT, 20% glycerol (v/v), 0.025% Tween 20 (v/v). Reactions were started with addition of 1 uM protoporphyrinogen IX final assay concentration. Fluorescence was monitored over 30 min using a Tecan plate reader with an excitation wavelength of 405 nm, emission wavelength of 635 nm, gain of 90 and 15 flashes. 10 ul of 3-fold serial dilution of crude extract in 100 mM K2HPO4 pH7.2, 1 mM Na2EDTA, 5 mM DTT, 20% glycerol (v/v), 0.05% Tween 20 (v/v) was tested in the assay against 1% DMSO and 100 ppm herbicide B to determine the correct amount of crude extract to add to the assay to observe activity. 10 ul of the appropriate crude extract dilution was then tested in the fluorescent Protoporphyrinogen Oxidase assay against DMSO and 10-fold dose response of each compound (herbicides A to E) with a top rate of 100 ppm.
# (§3) The percentage inhibition was calculated as the activity in the presence of one of four concentrations of each herbicide compound A to E (note that the compounds labelled as A to E are identified hereinabove in the relevant section of the description) as a percentage of the enzyme activity in DMSO (Table 5).
# [2] = target: T2, AtPPO1 S305L Y426V (SEQ ID NO.125) (Arabidopsis thaliana, UniProt P55826, S305L/Y426V); assay: as above; type: biochemical; details: read-out: percentage inhibition
# T2 construct: made in house; host or cells: E. coli BL21 (DE3) hemG, crude extract
# T2 sequence (P55826 35-537 S305L/Y426V): T1 sequence (P55826 35-537 Y361D/V365L) with S271L, D327Y, L331V, Y392V
# Protocol: as §1, §2, §3
SMILES,improvement over SEQ ID NO:124 [1],inhibition at 0.1 ppm [1] [%],inhibition at 1 ppm [1] [%],inhibition at 10 ppm [1] [%],inhibition at 100 ppm [1] [%],inhibition at 0.1 ppm [2] [%],inhibition at 1 ppm [2] [%],inhibition at 10 ppm [2] [%],inhibition at 100 ppm [2] [%]
"CCOC(=O)[C@]1(C)CC(c2cc(-n3c(=O)n(C)c(=S)n(C)c3=O)c(F)cc2Cl)=NO1 [Herbicide D, ethyl (5S)-3-[2-chloro-5-(3,5-dimethyl-2,6-dioxo-4-thioxo-1,3,5-triazinan-1-yl)-4-fluoro-phenyl]-5-methyl-4H-isoxazole-5-carboxylate]",improvement over SEQ ID NO:124 was seen,2,63,93,100,0,10,53,83
"CCOC(=O)C1(C)CC(c2cc(-n3c(=O)cc(C(F)(F)F)n(C)c3=O)c(F)cc2Cl)=NO1 (centres unmarked) [Herbicide C, 3-(2-chloro-4-fluoro-5-(3-methyl-2,6-dioxo-4-trifluoromethyl-3,6-dihydropyrimidin-1(2H)-yl)phenyl)-5-methyl-4,5-dihydroisoxazole-5-carboxylic acid ethyl ester]",improvement over SEQ ID NO:124 was seen,30,84,94,100,0,31,81,97
"C#CCN1C(=O)C(F)(F)Oc2cc(F)c(-n3c(=O)n(C)c(=S)n(C)c3=O)cc21 [Herbicide B, trifludimoxazin]",improvement over SEQ ID NO:124 was seen,82,100,100,100,87,99,100,100
"CC(C)N(C)S(=O)(=O)NC(=O)c1cc(-n2c(=O)cc(C(F)(F)F)n(C)c2=O)c(F)cc1Cl [Herbicide E, saflufenacil]",improvement over SEQ ID NO:124 was seen,0,31,83,100,0,2,50,84
"CCOC(=O)COc1ncccc1Oc1cc(-n2c(=O)cc(C(F)(F)F)n(C)c2=O)c(F)cc1Cl [Herbicide A, epyrifenacil]",–,56,89,99,96,0,11,63,87
